# Measurements taken from PMC11971462, “Generation and validation of a novel multitarget small molecule in glioblastoma” (Cell Death & Disease, 2025).
# System: GNS166 cells
compound,measurement,value
C#CCN(Cc1cc2cc(OCCCN3CCCCC3)ccc2n1S(=O)(=O)c1ccccc1)C(=O)CCCCCCC(=O)NO [DDI],A2M log2FoldChange,2.665
same,ABCD2 log2FoldChange,5.236
same,ABCG1 log2FoldChange,3.412
same,ABLIM2 log2FoldChange,4.711
same,ABLIM3 log2FoldChange,3.639
same,ACSL6 log2FoldChange,2.978
same,ACSM3 log2FoldChange,2.457
same,ACTBL2 log2FoldChange,4.551
same,ADAMTS2 log2FoldChange,6.235
same,ADAMTS7 log2FoldChange,2.1929
same,ADAMTS8 log2FoldChange,3.596
same,ADCYAP1R1 log2FoldChange,3.806
same,ADGRG4 log2FoldChange,6.334
same,ADRB1 log2FoldChange,2.369
same,AKR1C3 log2FoldChange,4.683
same,ALDH1A1 log2FoldChange,3.2419
same,ALPL log2FoldChange,3.15
same,AMER2 log2FoldChange,3.985
same,ANGPTL4 log2FoldChange,2.513
same,ANGPTL6 log2FoldChange,3.595
same,ANKRD1 log2FoldChange,3.607
same,ANKRD24 log2FoldChange,3.419
same,ANO5 log2FoldChange,4.46
same,ANOS1 log2FoldChange,4.667
same,APC2 log2FoldChange,2.08
same,ARHGAP4 log2FoldChange,2.074
same,ARMH1 log2FoldChange,2.688
same,ARPP21 log2FoldChange,2.016
same,ASPHD1 log2FoldChange,2.1055
same,ASXL3 log2FoldChange,3.768
same,ATCAY log2FoldChange,4.501
same,ATP6V1C2 log2FoldChange,2.012
same,AZIN2 log2FoldChange,3.645
same,B3GALT1 log2FoldChange,2.502
same,BAIAP3 log2FoldChange,2.116
same,BEST1 log2FoldChange,2.175
same,BMF log2FoldChange,2.488
same,BMP7 log2FoldChange,2.795
same,BRINP1 log2FoldChange,6.679
same,C2orf81 log2FoldChange,2.053
same,C5AR1 log2FoldChange,2.131
same,C14orf132 log2FoldChange,5.7
same,CACNA1H log2FoldChange,4.953
same,CACNA2D2 log2FoldChange,5.172
same,CADM3 log2FoldChange,6.675
same,CALHM5 log2FoldChange,2.928
same,CALY log2FoldChange,5.625
same,CAMK2N2 log2FoldChange,2.028
same,CARMIL2 log2FoldChange,3.403
same,CARMIL3 log2FoldChange,3.869
same,CCDC39 log2FoldChange,4.487
same,CCDC92B log2FoldChange,5.8
same,CCDC110 log2FoldChange,2.494
same,CCDC148 log2FoldChange,2.41
same,CCDC160 log2FoldChange,2.467
same,CCDC181 log2FoldChange,2.436
same,CCDC183 log2FoldChange,2.45
same,CCM2L log2FoldChange,4.732
same,CD22 log2FoldChange,2.4858
same,CDYL2 log2FoldChange,2.827
same,CECR2 log2FoldChange,4.106
same,CELF5 log2FoldChange,4.62
same,CFAP43 log2FoldChange,2.577
same,CFAP54 log2FoldChange,2.381
same,CFAP57 log2FoldChange,3.908
same,CFAP298-TCP10L log2FoldChange,2.613
same,CHGB log2FoldChange,2.484
same,CHRD log2FoldChange,2.364
same,CHST9 log2FoldChange,3.903
same,CKMT1A log2FoldChange,5.211
same,CLEC19A log2FoldChange,2.635
same,CLIC5 log2FoldChange,2.4345
same,COL2A1 log2FoldChange,3.044
same,COL6A3 log2FoldChange,4.472
same,CPED1 log2FoldChange,2.118
same,CPLX1 log2FoldChange,3.672
same,CPM log2FoldChange,2.471
same,CRABP1 log2FoldChange,4.4
same,CRTAC1 log2FoldChange,4.102
same,CRYAB log2FoldChange,3.702
same,CSMD2 log2FoldChange,3.997
same,CSRNP3 log2FoldChange,2.27
same,CTSH log2FoldChange,2.081
same,CYP1A1 log2FoldChange,3.053
same,CYP2S1 log2FoldChange,2.662
same,CYP4F22 log2FoldChange,6.411
same,DAPL1 log2FoldChange,2.233
same,DCAF8L1 log2FoldChange,5.4838
same,DDIT4L log2FoldChange,2.364
same,DENND6B log2FoldChange,2.257
same,DGKI log2FoldChange,3.175
same,DHH log2FoldChange,3.784
same,DLL3 log2FoldChange,3.7947
same,DLX3 log2FoldChange,2.236
same,DMBX1 log2FoldChange,2.746
same,DNAAF1 log2FoldChange,4.023
same,DNAH7 log2FoldChange,3.23
same,DNAI1 log2FoldChange,4.453
same,DNAI3 log2FoldChange,2.636
same,DNAI7 log2FoldChange,4.138
same,DOCK5 log2FoldChange,2.9913
same,DTX1 log2FoldChange,4.306
same,DUSP9 log2FoldChange,2.25
same,EAF2 log2FoldChange,2.082
same,EDA log2FoldChange,4.8176
same,EFCAB12 log2FoldChange,2.979
same,EGFL7 log2FoldChange,2.196
same,EGLN3 log2FoldChange,2.576
same,EID3 log2FoldChange,2.42
same,ELAPOR2 log2FoldChange,4.1571
same,ELOVL3 log2FoldChange,3.984
same,EPHB6 log2FoldChange,4.725
same,ERBB3 log2FoldChange,2.384
same,ERVV-1 log2FoldChange,6.315
same,FAIM2 log2FoldChange,2.169
same,FAM43B log2FoldChange,2.485
same,FAM71F1 log2FoldChange,2.207
same,FAM78A log2FoldChange,2.232
same,FAM107A log2FoldChange,2.013
same,FAM131C log2FoldChange,2.228
same,FANK1 log2FoldChange,2.642
same,FAT2 log2FoldChange,2.483
same,FBLN2 log2FoldChange,5.485
same,FBLN5 log2FoldChange,4.419
same,FBXO2 log2FoldChange,2.58
same,FGF13 log2FoldChange,3.276
same,FIBIN log2FoldChange,2.106
same,FKBP1B log2FoldChange,2.251
same,FOLR1 log2FoldChange,2.626
same,FOXO6 log2FoldChange,2.278
same,FRK log2FoldChange,2.849
same,FSTL5 log2FoldChange,5.479
same,FXYD6 log2FoldChange,4.385
same,GABRB1 log2FoldChange,3.597
same,GABRD log2FoldChange,5.7221
same,GABRQ log2FoldChange,7.349
same,GALNT6 log2FoldChange,2.317
same,GDPD1 log2FoldChange,2.176
same,GFY log2FoldChange,3.527
same,GLB1L2 log2FoldChange,6.148
same,GNG4 log2FoldChange,2.04
same,GNG8 log2FoldChange,3.102
same,GPC3 log2FoldChange,3.37
same,GPC5 log2FoldChange,2.595
same,GRB14 log2FoldChange,2.215
same,GRHL3 log2FoldChange,2.762
same,GRIA2 log2FoldChange,4.688
same,GRIA4 log2FoldChange,3.3
same,GRID2IP log2FoldChange,3.773
same,GRIN3B log2FoldChange,5.631
same,GSTO2 log2FoldChange,2.18
same,HAND1 log2FoldChange,4.809
same,HAPLN3 log2FoldChange,2.0919
same,HBA1 log2FoldChange,5.471
same,HBA2 log2FoldChange,4.292
same,HEPHL1 log2FoldChange,2.403
same,HGF log2FoldChange,3.276
same,HHIP log2FoldChange,3.119
same,HIF3A log2FoldChange,5.349
same,HLA-DMB log2FoldChange,2.342
same,HMCN2 log2FoldChange,3.444
same,HOATZ log2FoldChange,4.467
same,HOXA13 log2FoldChange,2.2385
same,HPCAL4 log2FoldChange,5.769
same,HSPA2 log2FoldChange,3.557
same,HTR6 log2FoldChange,3.33
same,ID4 log2FoldChange,2.033
same,IER3 log2FoldChange,2.061
same,IFITM10 log2FoldChange,2.3164
same,IGFBP3 log2FoldChange,2.818
same,IGFN1 log2FoldChange,4.535
same,IGLON5 log2FoldChange,3.821
same,IGSF1 log2FoldChange,6.9503
same,IGSF9 log2FoldChange,5.356
same,IGSF11 log2FoldChange,3.128
same,IL1A log2FoldChange,2.307
same,IL18R1 log2FoldChange,2.881
same,IL21R log2FoldChange,5.107
same,INSRR log2FoldChange,3.812
same,INSYN1 log2FoldChange,2.89
same,ITGAX log2FoldChange,6.404
same,ITIH5 log2FoldChange,7.18
same,JAK3 log2FoldChange,3.281
same,JAKMIP1 log2FoldChange,6.861
same,JPH3 log2FoldChange,7.177
same,JPH4 log2FoldChange,6.374
same,KCNH7 log2FoldChange,3.228
same,KCNK3 log2FoldChange,2.911
same,KCNN1 log2FoldChange,6.119
same,KCNN3 log2FoldChange,2.959
same,KCNQ2 log2FoldChange,7.079
same,KCNQ3 log2FoldChange,6.35
same,KCNU1 log2FoldChange,3.505
same,KDR log2FoldChange,2.185
same,KIAA1755 log2FoldChange,3.46
same,KIF26A log2FoldChange,3.322
same,KIRREL2 log2FoldChange,3.351
same,KISS1R log2FoldChange,5.189
same,KLRG1 log2FoldChange,3.015
same,KNDC1 log2FoldChange,5.452
same,KRT81 log2FoldChange,2.561
same,LAMA1 log2FoldChange,4.927
same,LANCL3 log2FoldChange,2.567
same,LGI3 log2FoldChange,4.02
same,LGI4 log2FoldChange,3.612
same,LHX6 log2FoldChange,2.492
same,LINGO1 log2FoldChange,3.184
same,LMX1B log2FoldChange,4.789
same,LRAT log2FoldChange,2.695
same,LRRC4B log2FoldChange,6.224
same,LRRC63 log2FoldChange,3.034
same,LTK log2FoldChange,2.536
same,LUM log2FoldChange,2.768
same,MACC1 log2FoldChange,2.159
same,MAGEC1 log2FoldChange,3.487
same,MAK log2FoldChange,2.409
same,MDFI log2FoldChange,3.485
same,MEFV log2FoldChange,4.614
same,MEGF11 log2FoldChange,3.91
same,MGAT3 log2FoldChange,4.144
same,MME log2FoldChange,2.372
same,MORN3 log2FoldChange,2.131
same,MPP7 log2FoldChange,2.694
same,MRO log2FoldChange,3.525
same,MT3 log2FoldChange,2.775
same,MYEOV log2FoldChange,3.238
same,MYO1D log2FoldChange,2.853
same,MYOZ2 log2FoldChange,6.009
same,NALF2 log2FoldChange,4.418
same,NAT16 log2FoldChange,3.0286
same,NCALD log2FoldChange,2.788
same,NCAN log2FoldChange,5.945
same,NCCRP1 log2FoldChange,5.22
same,NECTIN4 log2FoldChange,2.229
same,NFASC log2FoldChange,2.355
same,NFATC4 log2FoldChange,2.3144
same,NFIA log2FoldChange,2.067
same,NKD1 log2FoldChange,3.284
same,NKX1-2 log2FoldChange,2.899
same,NLRP1 log2FoldChange,3.5059
same,NME5 log2FoldChange,2.6336
same,NPY2R log2FoldChange,3.759
same,NSG1 log2FoldChange,5.809
same,NTNG2 log2FoldChange,2.905
same,NXPH3 log2FoldChange,2.7857
same,OLFM2 log2FoldChange,3.458
same,OLIG2 log2FoldChange,6.361
same,OTOGL log2FoldChange,4.502
same,PALM3 log2FoldChange,2.0048
